This is an account of results in ChEMBL document CHEMBL5233251, “Epoxide containing molecules: A good or a bad drug design approach” (Eur J Med Chem, 2020).

In data set [1] the target is T1, Aromatase (Homo sapiens, UniProt P11511).
T1 sequence (P11511 whole entry): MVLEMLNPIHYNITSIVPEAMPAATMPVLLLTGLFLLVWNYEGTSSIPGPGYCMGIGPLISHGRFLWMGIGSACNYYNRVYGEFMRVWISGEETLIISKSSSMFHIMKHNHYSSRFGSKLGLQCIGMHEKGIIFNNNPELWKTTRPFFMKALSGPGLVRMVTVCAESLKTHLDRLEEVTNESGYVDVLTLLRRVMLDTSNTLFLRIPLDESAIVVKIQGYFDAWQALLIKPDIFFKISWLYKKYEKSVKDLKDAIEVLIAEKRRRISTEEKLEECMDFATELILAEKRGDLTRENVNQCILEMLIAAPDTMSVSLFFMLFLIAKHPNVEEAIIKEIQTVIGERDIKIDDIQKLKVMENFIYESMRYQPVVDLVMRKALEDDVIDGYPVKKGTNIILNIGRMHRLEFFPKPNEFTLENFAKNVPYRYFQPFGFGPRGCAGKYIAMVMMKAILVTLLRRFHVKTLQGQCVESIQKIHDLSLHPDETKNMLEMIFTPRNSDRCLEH
As to the kind of experiment: Inhibition of aromatase in human MCF-7aro cells using [1beta-3H] androstenedione as substrate incubated for 1 hrs. The format is cell-based.

Data set [2] deals with T1, Aromatase. Kind of data set: Inhibition of aromatase in human MCF-7aro cells using [1beta-3H] androstenedione as substrate at 10 uM incubated for 1 hrs relative to control. The format is cell-based.
Data set [3] addresses T1, Aromatase. As to the kind of experiment: Inhibition of aromatase in disrupted human MCF-7aro cells using [1beta-3H] androstenedione as substrate incubated for 1 hrs in the presence of NADPH.
For data set [4], the system named is MCF7. Kind of data set: Cytotoxicity against human MCF7 cells incubated for 24 hrs by MTT assay. The format is functional, cell-based. The conditions noted are these: MCF7, 24 h. (In general: Formazan colour is commonly taken as a measure of viable cells.)
The test system of data set [5] is HCT-116. Kind of data set: Antiproliferative activity against human HCT-116 cells assessed as inhibition of cell growth incubated for 72 hrs by MTT assay. Type of data set: functional, cell-based. The conditions noted are these: HCT-116, 72 h.
For data set [6], the system named is OVCAR-8. Kind of data set: Antiproliferative activity against human OVCAR-8 cells assessed as inhibition of cell growth incubated for 72 hrs by MTT assay. Particulars: OVCAR-8, 72 h. Type of data set: functional, cell-based.
Data set [7] deals with SF-295. Kind of data set: Antiproliferative activity against human SF-295 cells assessed as inhibition of cell growth incubated for 72 hrs by MTT assay. The format is functional, cell-based. The conditions noted are these: SF-295, 72 h.
Data set [8] has as its system HL-60. As to the kind of experiment: Antiproliferative activity against human HL-60 cells assessed as inhibition of cell growth incubated for 72 hrs by MTT assay. The format is functional, cell-based. Particulars: HL-60, 72 h.
For data set [9], the system named is Leishmania donovani. Kind of data set: Antileishmanial activity against Leishmania donovani promastigotes. The format is functional, organism-based.
For data set [10], the system named is OVCAR-8. As to the kind of experiment: Antiproliferative activity against human OVCAR-8 cells assessed as inhibition of cell growth at 25 ug/ml incubated for 72 hrs by MTT assay relative to control. The arrangement: scale not given: the % may be the effect or the level left. The conditions noted are these: dose 25 µg/ml. The format is functional.
The test system of data set [11] is HCT-116. Kind of data set: Antiproliferative activity against human HCT-116 cells assessed as inhibition of cell growth at 25 ug/ml incubated for 72 hrs by MTT assay relative to control. Type of data set: functional. The arrangement: scale not given: the % may be the effect or the level left. The conditions noted are these: dose 25 µg/ml.
For data set [12], the system named is SF-295. Kind of data set: Antiproliferative activity against human SF-295 cells assessed as inhibition of cell growth at 25 ug/ml incubated for 72 hrs by MTT assay relative to control. Type of data set: functional. More on the design: scale not given: the % may be the effect or the level left. The conditions noted are these: dose 25 µg/ml.
Data set [13] deals with SW480. Kind of data set: Induction of apoptosis in human SW480 cells assessed as accumulation of cells at 5 uM incubated for 24 hrs by Acridine orange/ethidium bromide staining based fluorescent microscopic analysis (reference value: 13.6%). The format is functional.
Data set [14] relates to Ehrlich. Kind of data set: Antitumor activity against mouse Ehrlich cells implanted in ddY mouse assessed as T/C ratio at 70 mg/kg administered for 9 to 10 days. Type of data set: functional. The conditions noted are these: time 9-10 day.
The nature of data set [15]: Antitumor activity against IMC (unknown origin) cells xenografted in CDF1 mouse assessed as T/C ratio at 200 mg/kg, ip administered from day 1 to 5 and measured after 60 days. The format is functional. The conditions noted are these: time 60 day.
The subject of data set [16] is Sarcoma-180. Kind of data set: Antitumor activity against mouse Sarcoma-180 cells solid form implanted in ICR mouse assessed as T/C ratio at 12.5 mg/kg, ip administered from day 1 to 5 and measured after 60 days. Type of data set: functional. The conditions noted are these: time 60 day.
Data set [17] relates to Sarcoma-180. Kind of data set: Antitumor activity against mouse Sarcoma-180 cells ascitic form implanted in ICR mouse assessed as T/C ratio at 100 mg/kg, ip administered from day 1 to 5 and measured after 60 days. Type of data set: functional. The conditions noted are these: time 60 day.
Data set [18] relates to B16. As to the kind of experiment: Antitumor activity against mouse B16 cells implanted in BDF1 mouse assessed as T/C ratio at 25 mg/kg, ip administered from day 1 to 5 and measured after 60 days. The format is functional. Particulars: time 60 day.
Data set [19] concerns T47D. As to the kind of experiment: Antiproliferative activity against human T47D cells assessed as inhibition of cell proliferation incubated for 72 hrs by DAPI staining based flow cytometric analysis. Type of data set: functional. Background: A flow cytometer gives signals particle by particle.
The test system of data set [20] is BE(2)-C. As to the kind of experiment: Antiproliferative activity against human BE2C cells assessed as inhibition of cell growth by tryphan blue exclusion assay. The format is functional, cell-based.
The nature of data set [21]: Antiproliferative activity against human SH-EP cells assessed as inhibition of cell growth by tryphan blue exclusion assay. The format is functional, cell-based.
Data set [22] has as its system HUVEC. As to the kind of experiment: (§1) Cytotoxicity against HUVEC cells assessed as inhibition of cell growth incubated for 72 hrs by MTT assay. The format is toxicity, cell-based, Homo sapiens. The conditions noted are these: huvec.
For data set [23], the system named is MIA PaCa-2. Kind of data set: Cytotoxicity against human MIA PaCa-2 cells assessed as inhibition of cell proliferation incubated for 72 hrs by MTT assay. The format is functional, cell-based.
A short description of data set [24]: Cytotoxicity against human DeFew cells assessed as inhibition of cell proliferation incubated for 72 hrs by MTT assay. Type of data set: functional, cell-based.
The nature of data set [25]: as §1. The format is toxicity, cell-based, Homo sapiens. The conditions noted are these: human, HUVEC cells.
Data set [26] relates to SK-MES-1. As to the kind of experiment: Antiproliferative activity against human SK-MES-1 cells assessed as reduction in cell viability incubated for 72 hrs by MTT assay. The conditions noted are these: SK-MES-1, 72 h. The format is functional, cell-based.
Data set [27] can be described thus: Cytotoxicity against human BEAS-2B assessed as reduction in cell viability incubated for 72 hrs by MTT assay. The format is toxicity, cell-based. Particulars: BEAS-2B cells.
For data set [28], the system named is Calu-3. As to the kind of experiment: Antiproliferative activity against human Calu-3 cells assessed as reduction in cell viability incubated for 72 hrs by MTT assay. The format is functional, cell-based. Particulars: Calu-3, 72 h.
The subject of data set [29] is A549. Kind of data set: Antiproliferative activity against human A549 cells assessed as reduction in cell viability incubated for 72 hrs by MTT assay. The conditions noted are these: A549, 72 h. Type of data set: functional, cell-based.
The subject of data set [30] is NCI-H1299. As to the kind of experiment: Antiproliferative activity against human NCI-H1299 cells assessed as reduction in cell viability incubated for 72 hrs by MTT assay. The format is functional, cell-based. The conditions noted are these: NCI-H1299, 72 h.
Data set [31] has as its system NCI-H460. Kind of data set: Antiproliferative activity against human NCI-H460 cells assessed as reduction in cell viability incubated for 72 hrs by MTT assay. Type of data set: functional, cell-based. Particulars: NCI-H460, 72 h.
The test system of data set [32] is DOHH-2. Kind of data set: Antitumor activity against human DOHH-2 cells assessed as reduction in cell viability. Type of data set: functional, cell-based.
The test system of data set [33] is SUD4. As to the kind of experiment: Antitumor activity against human SU-DHL-4 cells assessed as reduction in cell viability. Type of data set: functional, cell-based.
The nature of data set [34]: Antitumor activity against human INA-6 cells assessed as reduction in cell viability. Type of data set: functional, cell-based.
Data set [35] can be described thus: Induction of apoptosis in human multiple myeloma cell. The format is functional, cell-based.
Data set [36] has as its system RPMI-8226. Kind of data set: Antitumor activity against human RPMI-8226 cells assessed as reduction in cell viability. The format is functional, cell-based.

Each structure is given as a SMILES string. Converted amounts (≈) assume the structure as drawn. Where a SMILES comes first, the peptide text is derived from it. [ ]: non-standard residue; d: D form. Aoe = N[C@@H](CCCCCC(=O)[C@@H]1CO1)C(=O)O

What is called IC50 is the midpoint of a concentration-inhibition curve. The term inhibition denotes the drop in the measured response relative to a control, in per cent. For orientation: T/C means the ratio of treated to control. One may read the EC50 as the concentration that produces a half-maximal response.

Take `C[C@]12CC[C@H]3[C@@H](CC[C@@]45O[C@@H]4CCC[C@]35C)[C@@H]1CCC2=O`: the IC50 in data set [1] turned out to be 8.5 µM; in data set [3] it was 1.2 µM. This compound also displayed an inhibition at 10 µM in data set [2] of 52.2%.

Take `COc1cc(CNC(=O)CCCCC2OC2C(C)C)ccc1O` (stereo not drawn): half-maximal inhibition in [4] (IC50) was put at 50 µM.

As to `C[C@]1([C@H]2CC=C(C=O)CC2)CO1`, the IC50 in [5] was 1.03 µg/mL (≈ 6.2 µM); in data set [6], 1.03 µg/mL (≈ 6.2 µM); in data set [7], 1.03 µg/mL (≈ 6.2 µM); in data set [8], 1.03 µg/mL (≈ 6.2 µM); in data set [9], 3.87 µg/mL (≈ 23.3 µM). Also, the Activity in data set [10], in data set [11] and in data set [12] was 96.32% throughout.

As for `C[C@H]1C(=O)OC([C@@H](O)[C@](C)(O)[C@H]2[C@@H](O)C[C@H]3[C@@H]4C[C@H]5O[C@]56[C@@H](O)C=CC(=O)[C@]6(C)[C@H]4CC[C@]23C)[C@@H]1C` (stereo partly drawn), the Activity in data set [13] is 33.8%.

In the case of `CO[C@H]1[C@@H](OC)C[C@H](C)[C@@H](OC)C2=CC(=O)C(N3CCN(C)CC3)=C(NC(=O)/C(C)=C/C=C\[C@H](OC)[C@H](OC(N)=O)C3(C)CC3[C@@H]1C)C2=O` (stereo partly drawn), the T/C came to 141% in data set [14]; 358% in data set [15]; 167% in [16]; 200% in [17]; 155% in [18].

Regarding `C[C@@H]1NC(=O)[C@@H](C)NC(=O)[C@H](CCCCCC(=O)[C@@H]2CO2)NC(=O)[C@H]2CCCN2C1=O` (cyclo(A[dP][Aoe][dA])), the IC50 was 0.037 µM in data set [19], 0.015 µM in data set [20] and 0.018 µM in [21].

For the compound `CC(C)=CCCC1(C)OC1C=O` (stereo in doubt; 10a), the IC50 in data set [22] was 200 µM; in [23] (mia paca-2), 88.7 µM; in data set [24] (defew), 45 µM.

For `CC(C)=CCCC1(C)OC1C=O` (stereo in doubt; 10b), in [25], the IC50 at 72 h was 162 µM. Further, the IC50 was 94 µM in data set [23] (Homo sapiens, MIA PaCa-2, 72 h) and 89 µM in data set [24] (Homo sapiens, DeFew, 72 h).

With `CC(=O)O[C@H]1[C@H]2O[C@]23[C@@H]2CC[C@@H]4C[C@@H](O)CC[C@]4(C)[C@H]2CC[C@]3(C)[C@H]1c1ccc(=O)oc1` [CINOBUFAGIN], the IC50 in data set [26], in [28], in data set [29], in data set [30] and in data set [31] was 2.3 µM in each case. Also, the IC50 at 72 h in [27] was determined as 22.3 µM.

`CC1=C(O)C(=O)c2c(ccc(O)c2O)C1=O` [DIONCOQUINONE B]: the EC50 in data set [32] was found to be 7.6 µM; in data set [33], 7.6 µM; in [34], 7.6 µM; in data set [35], 11 µM; in data set [36], 7.6 µM.
